# According to the supplement of paper PMC10307832:
# Experiments:
# Assay in all cases: relative viability (nuclei count vs DMSO), 5 days (fraction); higher = more cells survive
# [1] = compound: c1ccc2c(CCNc3ccc(Nc4ccncc4)cc3)c[nH]c2c1 [Serdemetan] + Cc1cc(Nc2cc(N3CCN(C)CC3)nc(Sc3ccc(NC(=O)C4CC4)cc3)n2)n[nH]1 [Tozasertib] (partner 0.1 µM)
# Method in brief: (§1)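 For relative viability, nuclei counts in treated wells were divided by those in vehicle wells. Lung cancer cell lines had been pin-tool dosed in 1536-well plates the day after seeding and cultured for 5 days, then fixed and stained in one step (final 0.05% Triton X-100, 1% formaldehyde, 1 ug/ml Hoechst) and imaged at 4×. Doses were one drug alone or a fixed anchor-drug dose plus five library-drug doses (not always all listed) in √10 steps, and values are duplicate-plate medians.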
# [2] = compound: C1CC(C2=C(C1)C3=C(N2)C=CC(=C3)Cl)C(=O)N [Selisistat] + CCNC(=O)c1noc(-c2cc(C(C)C)c(O)cc2O)c1-c1ccc(CN2CCOCC2)cc1 [Luminespib] (partner 0.01 µM)
# Method in brief: as §1
# [3] = compound: C1CC(C2=C(C1)C3=C(N2)C=CC(=C3)Cl)C(=O)N [Selisistat] + Nc1nc2[nH]cc(CCc3ccc(C(=O)N[C@@H](CCC(=O)O)C(=O)O)cc3)c2c(=O)[nH]1 [Pemetrexed] (partner 0.2 µM)
# Method in brief: as §1
# [4] = compound: C1CC(C2=C(C1)C3=C(N2)C=CC(=C3)Cl)C(=O)N [Selisistat] + CC(C)C[C@H](NC(=O)[C@H](Cc1ccccc1)NC(=O)c1cnccn1)B(O)O [Bortezomib] (partner 0.002 µM)
# Method in brief: as §1
cell line,measurement,setting,value
UMC-11,relative viability,[1]; first compound 0.04 µM,0.224
same,relative viability,[1]; first compound 0.1265 µM,0.199
same,relative viability,[1]; first compound 0.4 µM,0.208
same,relative viability,[1]; first compound 4 µM,0.233
same,relative viability,[2]; first compound 0.4 µM,1.03
same,relative viability,[2]; first compound 1.265 µM,0.931
same,relative viability,[2]; first compound 4 µM,0.896
same,relative viability,[2]; first compound 12.65 µM,1.09
same,relative viability,[2]; first compound 40 µM,1
same,relative viability,[3]; first compound 0.4 µM,0.767
same,relative viability,[3]; first compound 1.265 µM,0.749
same,relative viability,[3]; first compound 4 µM,0.844
same,relative viability,[3]; first compound 12.65 µM,0.754
same,relative viability,[3]; first compound 40 µM,0.759
same,relative viability,[4]; first compound 0.4 µM,0.494
same,relative viability,[4]; first compound 1.265 µM,0.71
same,relative viability,[4]; first compound 4 µM,0.738
same,relative viability,[4]; first compound 12.65 µM,0.671
same,relative viability,[4]; first compound 40 µM,0.626
